Where a name gives a salt, the structure may show the parent alone.
system: clot lysis (fibrinolysis) in diluted human citrated plasma, tPA-induced; test: Plasma-based clot lysis assay (5%); format: biochemical; conditions: human citrated platelet-poor plasma 5%, fibrinogen 3 μM, CaCl2 10 mM, tPA 0.2 nM, 37° C., OD at 405 nm
How it was run: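 Clot formation and breakdown triggered by CaCl2 (10 mM final) plus tPA (0.2 nM final) at 37° C, in 5% diluted human plasma supplemented with 3 μM fibrinogen (HEPES/NaCl/Brij buffer, pH 7). IC50 obtained from time courses relative to a blank control.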

| IC50 | SMILES |
| --- | --- |
| 0.017 µM | CC(C)(c1ccc(F)cc1)c1noc(-c2cnn3c(C4CCNCC4)cc(=O)[nH]c23)n1 [Example 255, 3-{3-[2-(4-fluorophenyl)propan-2-yl]-1,2,4-oxadiazol-5-yl}-7-(piperidin-4-yl)pyrazolo[1,5-a]pyrimidin-5(4H)-one hydrochloride] |
| 0.035 µM | COC(=O)c1ccc(-c2noc(-c3cnn4c(C5CCNCC5)cc(=O)[nH]c34)n2)cc1 [Example 204, Methyl 4-{5-[5-oxo-7-(piperidin-4-yl)-4,5-dihydropyrazolo[1,5-a]pyrimidin-3-yl]-1,2,4-oxadiazol-3-yl}benzoate hydrochloride] |
| 0.036 µM | O=c1cc(C2CCNCC2)n2ncc(-c3noc(-c4ccc(Cl)cc4)n3)c2[nH]1 [Example 233, 3-[5-(4-chlorophenyl)-1,2,4-oxadiazol-3-yl]-7-(piperidin-4-yl)pyrazolo[1,5-a]pyrimidin-5(4H)-one hydrochloride] |
| 0.035 µM | Cc1nn2c(C3CCNCC3)cc(=O)[nH]c2c1C(=O)N1CC2CCCCC2C1 (centres unmarked) [Example 413, 2-methyl-3-(octahydro-2H-isoindol-2-ylcarbonyl)-7-(piperidin-4-yl) pyrazolo[1,5-a] pyrimidin-5(4H)-one hydrochloride] |
| 0.014 µM | O=c1cc(C2CCNCC2)n2ncc(-c3nnc(Cc4ccccc4Cl)o3)c2[nH]1 [Example 276, 3-[5-(2-chlorobenzyl)-1,3,4-oxadiazol-2-yl]-7-(piperidin-4-yl)pyrazolo[1,5-a]pyrimidin-5(4H)-one hydrochloride] |
| 0.016 µM | N#Cc1ccccc1-c1cnn2c(C3CCNCC3)cc(=O)[nH]c12 [Example 49, 2-[5-Oxo-7-(piperidin-4-yl)-4,5-dihydropyrazolo[1,5-a]pyrimidin-3-yl]benzonitrile trifluoroacetate] |
| 0.024 µM | CC(C)Oc1ccc(Cc2nc(-c3cnn4c(C5CCNCC5)cc(=O)[nH]c34)no2)cc1 [Example 252, 7-(piperidin-4-yl)-3-{5-[4-(propan-2-yloxy)benzyl]-1,2,4-oxadiazol-3-yl}pyrazolo[1,5-a]pyrimidin-5(4H)-one hydrochloride] |
| 0.056 µM | O=c1cc(C2CCNCC2)n2ncc(-c3nc(-c4ccc(Cl)cc4)no3)c2[nH]1 [Example 157, 3-[3-(4-chlorophenyl)-1,2,4-oxadiazol-5-yl]-7-(piperidin-4-yl)pyrazolo[1,5-a]pyrimidin-5 (4H)-one hydrochloride] |
| 0.033 µM | CCc1cccc(NC(=O)c2cnn3c(C4CCNCC4)cc(=O)[nH]c23)c1 [Example 80, N-(3-ethylphenyl)-5-oxo-7-(piperidin-4-yl)-4,5-dihydropyrazolo[1,5-a]pyrimidine-3-carboxamide] |
| 0.022 µM | CC(C)(C)CNC(=O)c1cnn2c(C3CCNCC3)cc(=O)[nH]c12 [Example 93, N-(2,2-dimethylpropyl)-5-oxo-7-(piperidin-4-yl)-4,5-dihydropyrazolo[1,5-a]pyrimidine-3-carboxamide hydrochloride] |
| 0.027 µM | Cc1ccc(-c2noc(-c3cnn4c(C5CCNCC5)cc(=O)[nH]c34)n2)cc1 [Example 39, 3-[3-(4-Methylphenyl)-1,2,4-oxadiazol-5-yl]-7-(piperidin-4-yl)pyrazolo[1,5-a]pyrimidin-5 (4H)-hydrochloride] |
| 0.026 µM | Cc1nn2c(C3CCNCC3)cc(=O)[nH]c2c1-c1nc(Cc2ccccc2Cl)no1 [Example 439, 3-[3-(2-chlorobenzyl)-1,2,4-oxadiazol-5-yl]-2-methyl-7-(piperidin-4-yl)pyrazolo[1,5-a]pyrimidin-5(4H)-one hydrochloride] |
| 0.016 µM | O=c1cc(C2CCNCC2)n2ncc(-c3cccc(C(F)(F)F)c3)c2[nH]1 [Example 58, 7-(Piperidin-4-yl)-3-[3-(trifluoromethyl)phenyl]pyrazolo[1,5-a]pyrimidin-5(4H)-one hydrochloride] |
| 0.029 µM | COc1ccccc1Cc1nnc(-c2cnn3c(C4CCNCC4)cc(=O)[nH]c23)o1 [Example 280, 3-[5-(2-methoxybenzyl)-1,3,4-oxadiazol-2-yl]-7-(piperidin-4-yl)pyrazolo[1,5-a]pyrimidin-5(4H)-one hydrochloride] |
| 0.031 µM | O=c1cc(C2CCNCC2)n2ncc(-c3nnc(C4CCCCC4)o3)c2[nH]1 [Example 293, 3-(5-cyclohexyl-1,3,4-oxadiazol-2-yl)-7-(piperidin-4-yl)pyrazolo[1,5-a]pyrimidin-5 (4H)-one hydrochloride] |
| 0.039 µM | Cc1nc(-c2ccc(C(F)(F)F)cc2)sc1-c1cnn2c(C3CCNCC3)cc(=O)[nH]c12 [Example 369, 3-{4-methyl-2-[4-(trifluoromethyl)phenyl]-1,3-thiazol-5-yl}-7-(piperidin-4-yl)pyrazolo[1,5-a]pyrimidin-5(4H)-one hydrochloride] |
| 0.047 µM | Cc1ccc(-c2noc(-c3cnn4c(C5CCNCC5)cc(=O)[nH]c34)n2)cc1Cl [Example 123, 3-[3-(3-Chloro-4-methylphenyl)-1,2,4-oxadiazol-5-yl]-7-(piperidin-4-yl)pyrazolo[1,5-a]pyrimidin-5(4H)-one hydrochloride] |
| 0.035 µM | Cc1nc(-c2ccccc2)sc1-c1cnn2c(C3CCNCC3)cc(=O)[nH]c12 [Example 187, 3-(4-methyl-2-phenyl-1,3-thiazol-5-yl)-7-(piperidin-4-yl)pyrazolo[1,5-a]pyrimidin-5(4H)-one hydrochloride] |
| 0.0097 µM | O=c1cc(C2CCNCC2)n2ncc(-c3nc(Cc4ccc(F)cc4)no3)c2[nH]1 [Example 224, 3-[3-(4-fluorobenzyl)-1,2,4-oxadiazol-5-yl]-7-(piperidin-4-yl)pyrazolo[1,5-a]pyrimidin-5(4H)-one hydrochloride] |
| 0.024 µM | CN(Cc1ccccc1)C(=O)c1cnn2c(C3CCNCC3)cc(=O)[nH]c12 [Example 97, N-benzyl-N-methyl-5-oxo-7-(piperidin-4-yl)-4,5-dihydropyrazolo[1,5-a]pyrimidine-3-carboxamide hydrochloride] |
| 0.035 µM | O=c1cc(C2CCNCC2)n2ncc(-c3nc(-c4cccc([N+](=O)[O-])c4)no3)c2[nH]1 [Example 205, 3-[3-(3-nitrophenyl)-1,2,4-oxadiazol-5-yl]-7-(piperidin-4-yl)pyrazolo[1,5-a]pyrimidin-5(4H)-one hydrochloride] |

| SMILES | IC50 |
| --- | --- |
| O=c1cc(C2CCNCC2)n2nc(C3CC3)cc2[nH]1 [Example 26, 2-Cyclopropyl-7-(piperidin-4-yl)pyrazolo[1,5-a]pyrimidin-5(4H)-one hydrochloride] | 0.31 µM |
| C=C(C)c1cnn2c(C3CCNCC3)cc(=O)[nH]c12 [Example 449, 7-(piperidin-4-yl)-3-(prop-1-en-2-yl)pyrazolo[1,5-a]pyrimidin-5 (4H)-one hydrochloride] | 0.055 µM |
